In PubChem BioAssay AID1845216 (Molecular Pharmacology Branch, DTP, NCI, 2023):
“And” between values parts separate entries of the source, which are not always exact repeats. Equal entries are not always repeated.

System: SW 982 tumor spheroid viability
Assay: Anticancer human tumor SW 982 cell line growth inhibition;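 note: spheroids exposed to compound for 7 days before readout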
Settings: spheroids with HUVEC and MSC; for viability, T/C: stronger effect = lower value
In short: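 Complex tumor spheroids combined malignant cells with endothelial cells and mesenchymal stem cells. DNA-damaging drugs and DNA repair inhibitors were tested alone and in combination, at half-log dilutions down from clinical Cmax (top 10 microM if Cmax unknown), 0.25% DMSO final.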

[1] = curve of first compound, second compound 0.003 µM

CC(C)n1c(=O)n(C)c2cnc3cc(F)c(-c4ccc(OCCCN5CCCCC5)nc4)cc3c21 + CC[C@@]1(O)C(=O)OCc2c1cc1n(c2=O)Cc2cc3c(CN(C)C)c(O)ccc3nc2-1
IC50 [1]: 1.57 µM
IC50 (curve of first compound, second compound 0.00949 µM): 1.53 µM
IC50 (curve of first compound, second compound 0.03 µM): 0.952 µM
IC50 (curve of first compound, second compound 0.0949 µM): 0.513 µM
IC50 (curve of first compound, second compound 0.3 µM): 0.0768 µM
viability, T/C (second compound 0.003 µM, first compound 0.0316 µM): 80.2%
viability, T/C (second compound 0.003 µM, first compound 0.1 µM): 77%
viability, T/C (second compound 0.003 µM, first compound 0.316 µM): 78.9%
viability, T/C (second compound 0.003 µM, first compound 1 µM): 62.5%
viability, T/C (second compound 0.003 µM, first compound 3.16 µM): 30.2%
viability, T/C (second compound 0.003 µM, first compound 10 µM): 20.3%
viability, T/C (second compound 0.00949 µM, first compound 0.0316 µM): 71.6%
viability, T/C (second compound 0.00949 µM, first compound 0.1 µM): 79.7%
viability, T/C (second compound 0.00949 µM, first compound 0.316 µM): 64%
viability, T/C (second compound 0.00949 µM, first compound 1 µM): 61.4%
viability, T/C (second compound 0.00949 µM, first compound 3.16 µM): 34.4%
viability, T/C (second compound 0.00949 µM, first compound 10 µM): 18.4%
viability, T/C (second compound 0.03 µM, first compound 0.0316 µM): 71.6%
viability, T/C (second compound 0.03 µM, first compound 0.1 µM): 81%
viability, T/C (second compound 0.03 µM, first compound 0.316 µM): 59.4%
viability, T/C (second compound 0.03 µM, first compound 1 µM): 53.6%
viability, T/C (second compound 0.03 µM, first compound 3.16 µM): 25.1%
viability, T/C (second compound 0.03 µM, first compound 10 µM): 17.1%
viability, T/C (second compound 0.0949 µM, first compound 0.0316 µM): 72.6%
viability, T/C (second compound 0.0949 µM, first compound 0.1 µM): 65.5%
viability, T/C (second compound 0.0949 µM, first compound 0.316 µM): 58.6%
viability, T/C (second compound 0.0949 µM, first compound 1 µM): 39.3%
viability, T/C (second compound 0.0949 µM, first compound 3.16 µM): 24.9%
viability, T/C (second compound 0.0949 µM, first compound 10 µM): 15.9%
viability, T/C (second compound 0.3 µM, first compound 0.0316 µM): 56.4%
viability, T/C (second compound 0.3 µM, first compound 0.1 µM): 46.2%
viability, T/C (second compound 0.3 µM, first compound 0.316 µM): 40.8%
viability, T/C (second compound 0.3 µM, first compound 1 µM): 30%
viability, T/C (second compound 0.3 µM, first compound 3.16 µM): 18.6%
viability, T/C (second compound 0.3 µM, first compound 10 µM): 14.5%

COc1ccc([C@@H](O)c2cc(-c3ncnc4cc(N5CCOCC5)ccc34)c(F)cc2Cl)nn1
viability, T/C (compound 0.0316 µM): 88.1% and 102% and 107%
viability, T/C (compound 0.1 µM): 87.4% and 93.8% and 101%
viability, T/C (compound 0.316 µM): 90.2% and 97.4% and 99.4%
viability, T/C (compound 1 µM): 89.2% (2×) and 98.7%
viability, T/C (compound 3.16 µM): 90.2% and 85.7% and 95.6%
viability, T/C (compound 10 µM): 57.1% and 67% and 70.2%
IC50 (curve of compound): > 10 µM

CNCc1ccc(-c2cc(-c3nc(-c4ccc(S(=O)(=O)C(C)C)cc4)cnc3N)on2)cc1 + COc1cc2c(cc1O)CCNC21CSC2c3c(OC(C)=O)c(C)c4c(c3C(COC1=O)N1C(O)C3Cc5cc(C)c(OC)c(O)c5C(C21)N3C)OCO4
IC50 (curve of first compound, second compound 30 pM): 0.211 µM
IC50 (curve of first compound, second compound 94.9 pM): 0.131 µM
IC50 (curve of first compound, second compound 0.0003 µM): 0.107 µM
IC50 (curve of first compound, second compound 0.000949 µM): < 0.00949 µM
IC50 [1]: < 0.00949 µM
viability, T/C (second compound 30 pM, first compound 0.00949 µM): 99.6%
viability, T/C (second compound 30 pM, first compound 0.03 µM): 95.6%
viability, T/C (second compound 30 pM, first compound 0.0949 µM): 78.3%
viability, T/C (second compound 30 pM, first compound 0.3 µM): 33.4%
viability, T/C (second compound 30 pM, first compound 0.949 µM): 23.8%
viability, T/C (second compound 30 pM, first compound 3 µM): 2.48%
viability, T/C (second compound 94.9 pM, first compound 0.00949 µM): 100%
viability, T/C (second compound 94.9 pM, first compound 0.03 µM): 94%
viability, T/C (second compound 94.9 pM, first compound 0.0949 µM): 55.9%
viability, T/C (second compound 94.9 pM, first compound 0.3 µM): 26.4%
viability, T/C (second compound 94.9 pM, first compound 0.949 µM): 18.9%
viability, T/C (second compound 94.9 pM, first compound 3 µM): 2.12%
viability, T/C (second compound 0.0003 µM, first compound 0.00949 µM): 84.7%
viability, T/C (second compound 0.0003 µM, first compound 0.03 µM): 81%
viability, T/C (second compound 0.0003 µM, first compound 0.0949 µM): 47.9%
viability, T/C (second compound 0.0003 µM, first compound 0.3 µM): 28.2%
viability, T/C (second compound 0.0003 µM, first compound 0.949 µM): 16.5%
viability, T/C (second compound 0.0003 µM, first compound 3 µM): 2.22%
viability, T/C (second compound 0.000949 µM, first compound 0.00949 µM): 49.3%
viability, T/C (second compound 0.000949 µM, first compound 0.03 µM): 39.2%
viability, T/C (second compound 0.000949 µM, first compound 0.0949 µM): 28.2%
viability, T/C (second compound 0.000949 µM, first compound 0.3 µM): 15.9%
viability, T/C (second compound 0.000949 µM, first compound 0.949 µM): 9.5%
viability, T/C (second compound 0.000949 µM, first compound 3 µM): 0.69%
viability, T/C (second compound 0.003 µM, first compound 0.00949 µM): 0.4%
viability, T/C (second compound 0.003 µM, first compound 0.03 µM): 1.22%
viability, T/C (second compound 0.003 µM, first compound 0.0949 µM): 0.92%
viability, T/C (second compound 0.003 µM, first compound 0.3 µM): 0.5%
viability, T/C (second compound 0.003 µM, first compound 0.949 µM): 1.07%
viability, T/C (second compound 0.003 µM, first compound 3 µM): 0.31%
